According to US6391914B1, “Optically active aminopentane derivatives” (Fujimoto Brothers Co., Ltd., priority 1998, dated 2002):
Counter-ions that a name gives are not always drawn. Like-named read-outs stand apart in the source and are kept apart here.

Experiments:
α1 receptor = test: Receptor affinity, 3H-prazocin binding; design: species or system rats; details: 0.25 nmol/L 3H-prazocin; read-out: Affinity to α1 receptor: concentration showing 50% inhibition between ligand and receptor
Experimental: (§1) The receptor solution was prepared as follows. After the rats were decapitated, brain was immediately isolated and weighed. Thereafter, brain samples were homogenized in ten times volumes of ice-cold 0.35 mol/L sucrose (pH 7.4) using glass homogenizer with Teflon pestle, which was revolted by motors. The homogenate was centrifuged at 4° C. at 900×g for 10 min and the supernatant was, furthermore, recentrifuged at 4° C. at 22,000×g for 20 min. The precipitate was suspended with addition of 5 mmol/L phosphate buffer solution (pH 7.4). After the suspension was incubated at 37° C. for 30 min, the suspension was recentrifuged at 4° C. at 20,000×g for 20 min. The precipitate was resuspended in 10 ml of 5 mmol/L phosphate buffer solution (pH 8.0) to be receptor solution.
^3H-prazocin was used as a ligand. 0.25 nmol/L of ^3H-prazocin, the compounds of the invention and the receptor solution, which were respectively prepared in 5 mmol/L phosphate buffer (pH 8), were put in tube and the mixture was incubated at 25° C. for 90 min. In addition, the nonspecific binding was evaluated with binding value of ^3H-prazocin in the presence of 0.1 μmol/L prazocin. […] After 10 ml of scintillation cocktail was put in it, the radioactivity was measured. Affinity of the compounds of the invention to α1 receptor was evaluated from the inhibition rate of binding between α1 receptor and the ligand.

α2 receptor = test: Receptor affinity, 3H-rauwolscine binding; design: species or system rats; details: 0.7 nmol/L 3H-rauwolscine, read-out: Affinity to α2 receptor: concentration showing 50% inhibition between ligand and receptor
Experimental: as §1
^3H-prazocin was used as a ligand. 0.25 nmol/L of ^3H-prazocin, the compounds of the invention and the receptor solution, which were respectively prepared in 5 mmol/L phosphate buffer (pH 8), were put in tube and the mixture was incubated at 25° C. for 90 min. In addition, the nonspecific binding was evaluated with binding value of ^3H-prazocin in the presence of 0.1 μmol/L prazocin. The binding assay was carried out as follows. After ^3H-prazocin (binding type: B) bound to receptor, only the binding type of ^3H-prazocin was collected using B/F separator (Brandel, USA) with glass fiber filter (pore size: 0.5 μm Whatman GF/C), and free type of prazocin (free type: F) was removed. Glass-fiber filter, absorbing the binding type of ^3H-prazocin, was washed with ice-cold saline solution and transferred to vial. After 10 ml of scintillation cocktail was put in it, the radioactivity was measured. Affinity of the compounds of the invention to α1 receptor was evaluated from the inhibition rate of binding between α1 receptor and the ligand.
(§2) Affinities of the compounds of the invention to receptors of α2, D1, D2, 5-HT1 and 5-HT2 were respectively determined in the same manner, while used 0.7 nmol/L ^3H-rauwolscine, 1.4 nmol/L ^3H-SCH-23390, 2.0 nmol/L spiperone, 2 nmol/L ^3H-5-HT and 0.5 nmol/L ^3H-ketanserin as each ligands. […]

D1 receptor = target: T1, D1 receptor (Rattus norvegicus, UniProt P18901); test: Receptor affinity, 3H-SCH-23390 binding; design: species or system rats
T1 construct: from tissue; host or cells: rat brain membranes
T1 sequence (P18901 whole entry): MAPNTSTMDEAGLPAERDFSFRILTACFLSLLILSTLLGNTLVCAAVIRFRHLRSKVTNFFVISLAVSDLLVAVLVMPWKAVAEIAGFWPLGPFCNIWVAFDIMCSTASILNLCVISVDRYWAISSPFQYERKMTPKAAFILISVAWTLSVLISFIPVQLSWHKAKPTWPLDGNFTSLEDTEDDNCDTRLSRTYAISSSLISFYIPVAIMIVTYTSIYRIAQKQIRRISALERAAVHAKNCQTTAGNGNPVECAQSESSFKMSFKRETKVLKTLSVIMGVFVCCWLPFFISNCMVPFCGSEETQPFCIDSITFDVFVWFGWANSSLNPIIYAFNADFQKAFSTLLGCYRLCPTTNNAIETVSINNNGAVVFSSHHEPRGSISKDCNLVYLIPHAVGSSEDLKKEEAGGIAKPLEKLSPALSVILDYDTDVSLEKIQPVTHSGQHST
Experimental: as §1, with “The precipitate was resuspended in 10 ml of 5 mmol/L phosphate buffer solution (pH 8.0) to be receptor solution.” left out
(§3) ^3H-prazocin was used as a ligand. […] In addition, the nonspecific binding was evaluated with binding value of ^3H-prazocin in the presence of 0.1 μmol/L prazocin. […] After 10 ml of scintillation cocktail was put in it, the radioactivity was measured. Affinity of the compounds of the invention to α1 receptor was evaluated from the inhibition rate of binding between α1 receptor and the ligand.
as §2

D2 receptor = target: T2, D2 receptor (Rattus norvegicus, UniProt P61169); test: Receptor affinity, spiperone binding; design: species or system rats
T2 construct: from tissue; host or cells: rat brain membranes
T2 sequence (P61169 whole entry): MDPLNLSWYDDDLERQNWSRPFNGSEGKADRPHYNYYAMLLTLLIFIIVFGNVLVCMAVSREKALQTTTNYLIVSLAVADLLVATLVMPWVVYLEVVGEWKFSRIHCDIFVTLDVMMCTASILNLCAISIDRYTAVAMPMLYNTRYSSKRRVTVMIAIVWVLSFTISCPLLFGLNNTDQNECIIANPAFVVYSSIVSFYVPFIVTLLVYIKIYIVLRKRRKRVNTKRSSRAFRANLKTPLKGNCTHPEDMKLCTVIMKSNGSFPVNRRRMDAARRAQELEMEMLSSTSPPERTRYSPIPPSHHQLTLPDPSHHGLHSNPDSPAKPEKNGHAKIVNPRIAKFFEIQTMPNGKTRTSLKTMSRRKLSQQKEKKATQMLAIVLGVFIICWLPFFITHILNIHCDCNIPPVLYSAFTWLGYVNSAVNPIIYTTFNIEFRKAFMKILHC
Experimental: as §1, with “The precipitate was resuspended in 10 ml of 5 mmol/L phosphate buffer solution (pH 8.0) to be receptor solution.” left out
as §3, §2

5-HT1 receptor = test: Receptor affinity, 3H-5-HT binding; design: species or system rats; details: 2 nmol/L 3H-5-HT; read-out: Affinity to 5-HT1 receptor: concentration showing 50% inhibition between ligand and receptor
Experimental: as §1, with “The precipitate was resuspended in 10 ml of 5 mmol/L phosphate buffer solution (pH 8.0) to be receptor solution.” left out
as §3, §2

5-HT2 receptor = target: T3, 5-HT2 receptor (Rattus norvegicus, UniProt P14842); test: Receptor affinity, 3H-ketanserin binding; design: species or system rats
T3 construct: from tissue; host or cells: rat brain membranes
T3 sequence (P14842 whole entry): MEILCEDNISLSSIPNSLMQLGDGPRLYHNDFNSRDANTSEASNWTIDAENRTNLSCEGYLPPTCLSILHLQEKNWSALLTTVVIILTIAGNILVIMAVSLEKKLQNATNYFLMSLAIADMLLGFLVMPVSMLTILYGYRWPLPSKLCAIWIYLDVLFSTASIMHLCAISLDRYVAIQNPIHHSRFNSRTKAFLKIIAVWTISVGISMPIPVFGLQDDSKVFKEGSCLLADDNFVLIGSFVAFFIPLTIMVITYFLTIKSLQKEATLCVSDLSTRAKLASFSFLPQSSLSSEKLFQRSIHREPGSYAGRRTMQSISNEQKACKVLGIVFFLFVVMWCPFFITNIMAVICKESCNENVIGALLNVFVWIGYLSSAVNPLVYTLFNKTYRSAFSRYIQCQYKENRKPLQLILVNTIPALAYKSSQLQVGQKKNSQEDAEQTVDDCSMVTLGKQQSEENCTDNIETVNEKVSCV
Experimental: as §1, with “The precipitate was resuspended in 10 ml of 5 mmol/L phosphate buffer solution (pH 8.0) to be receptor solution.” left out
as §3, §2

mice = test: Toxicity test in mice in the single administration; type: in vivo; details: 100 mg/kg p.o., observed two weeks

CCCNC(CCC)Cc1cc2ccccc2o1.Cl (racemic) [Racemic compound, (±)-1-(benzofuran-2-yl)-2-propylaminopentane hydrochloride]
IC50 (α1 receptor): > 10 µM
IC50 (α2 receptor): 1 µM
IC50 (D1 receptor): > 10 µM
IC50 (D2 receptor): > 10 µM
IC50 (5-HT1 receptor): > 10 µM
IC50 (5-HT2 receptor): 20 µM

CCCNC(CCC)Cc1cc2ccccc2o1.Cl (single isomer, unassigned; (+)) [(+)-Isomer, (+)-1-(benzofuran-2-yl)-2-propylaminopentane hydrochloride]
IC50 (α2 receptor; hydrochloride): 2.6 µM
IC50 (5-HT2 receptor): > 10 µM

CCCNC(CCC)Cc1cc2ccccc2o1 (single isomer, unassigned; (-)) [The compound of the invention, (−)-1-(benzofuran-2-yl)-2-propylaminopentane hydrochloride]
IC50 (α1 receptor): > 10 µM
IC50 (α2 receptor; hydrochloride): 3.1 µM
IC50 (D1 receptor): > 10 µM
IC50 (D2 receptor): > 10 µM
IC50 (5-HT1 receptor): > 10 µM
Survival of mice after single administration (mice): every three numbers of mice survived
